{"source": "PubChem BioAssay (NCI)", "assay_in_all_cases": "NCI tumour cell line growth inhibition, 48 h", "key": {"OVCAR-3 ovarian": {"test_system": "OVCAR-3 ovarian"}, "MALME-3M melanoma": {"test_system": "MALME-3M melanoma"}, "HCC-2998 colon": {"test_system": "HCC-2998 colon"}, "UACC-62 melanoma": {"test_system": "UACC-62 melanoma"}, "MDA-N": {"test_system": "MDA-N"}, "HOP-92 NSCLC": {"test_system": "HOP-92 NSCLC"}, "NCI/ADR-RES ovarian": {"test_system": "NCI/ADR-RES ovarian"}, "NCI-H460 lung": {"test_system": "NCI-H460 lung"}, "COLO 205 colon": {"test_system": "COLO 205 colon"}, "LOX IMVI melanoma": {"test_system": "LOX IMVI melanoma"}, "SK-MEL-5 melanoma": {"test_system": "SK-MEL-5 melanoma"}, "SF-539 CNS": {"test_system": "SF-539 CNS"}, "786-0 renal": {"test_system": "786-0 renal"}, "KM12 colon": {"test_system": "KM12 colon"}, "SF-268 CNS": {"test_system": "SF-268 CNS"}, "HOP-62 NSCLC": {"test_system": "HOP-62 NSCLC"}, "SNB-19 CNS": {"test_system": "SNB-19 CNS"}, "MDA-MB-435": {"test_system": "MDA-MB-435"}, "A549 NSCLC": {"test_system": "A549 NSCLC"}, "SNB-75 CNS": {"test_system": "SNB-75 CNS"}, "EKVX NSCLC": {"test_system": "EKVX NSCLC"}, "CAKI-1 renal": {"test_system": "CAKI-1 renal"}, "SN12C renal": {"test_system": "SN12C renal"}, "RXF 393 renal": {"test_system": "RXF 393 renal"}, "MCF7 breast": {"test_system": "MCF7 breast"}, "PC-3 prostate": {"test_system": "PC-3 prostate"}, "U251 CNS": {"test_system": "U251 CNS"}, "SW-620 colon": {"test_system": "SW-620 colon"}, "BT-549 breast": {"test_system": "BT-549 breast"}, "OVCAR-5 ovarian": {"test_system": "OVCAR-5 ovarian"}, "NCI-H226 lung": {"test_system": "NCI-H226 lung"}, "NCI-H522 lung": {"test_system": "NCI-H522 lung"}, "MDA-MB-231 breast": {"test_system": "MDA-MB-231 breast"}, "ACHN renal": {"test_system": "ACHN renal"}, "TK-10 renal": {"test_system": "TK-10 renal"}, "M14 melanoma": {"test_system": "M14 melanoma"}, "HL-60(TB) leukemia": {"test_system": "HL-60(TB) leukemia"}, "T-47D breast": {"test_system": "T-47D breast"}, "K-562 leukemia": {"test_system": "K-562 leukemia"}, "UO-31 renal": {"test_system": "UO-31 renal"}, "SF-295 CNS": {"test_system": "SF-295 CNS"}, "MOLT-4 leukemia": {"test_system": "MOLT-4 leukemia"}, "HCT-116 colon": {"test_system": "HCT-116 colon"}, "UACC-257 melanoma": {"test_system": "UACC-257 melanoma"}, "CCRF-CEM leukemia": {"test_system": "CCRF-CEM leukemia"}, "OVCAR-4 ovarian": {"test_system": "OVCAR-4 ovarian"}, "NCI-H23 lung": {"test_system": "NCI-H23 lung"}, "SK-MEL-2 melanoma": {"test_system": "SK-MEL-2 melanoma"}, "HCT-15 colon": {"test_system": "HCT-15 colon"}, "SK-MEL-28 melanoma": {"test_system": "SK-MEL-28 melanoma"}}, "note": "“And” between values parts separate entries of the source, which are not always exact repeats. Equal values may be shown once.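 Cultured in 96-well plates, cells were exposed to test compound for 48 hours across five concentrations. At the GI50, growth is halved. TGI is the concentration that stops growth completely.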"}
{"smiles": "CCCCCCCCCCCC[C@H](O)[C@H]1CC[C@H]([C@H](O)CCCC[C@H](O)CCCCC[C@@H](O)CC2=C[C@H](C)OC2=O)O1", "values": [{"measurement": "GI50", "setting": "OVCAR-3 ovarian", "value": 17.2, "unit": "µM"}, {"measurement": "TGI", "setting": "OVCAR-3 ovarian", "value": "9.34 µM and 32.4 µM"}, {"measurement": "TGI", "setting": "MALME-3M melanoma", "value": 32.2, "unit": "µM"}, {"measurement": "TGI", "setting": "HCC-2998 colon", "value": 33.9, "unit": "µM"}, {"measurement": "TGI", "setting": "UACC-62 melanoma", "value": 7.17, "unit": "µM"}, {"measurement": "GI50", "setting": "MDA-N", "value": 14.3, "unit": "µM"}, {"measurement": "TGI", "setting": "MDA-N", "value": 30.5, "unit": "µM"}, {"measurement": "GI50", "setting": "HOP-92 NSCLC", "value": 23.7, "unit": "µM"}, {"measurement": "TGI", "setting": "HOP-92 NSCLC", "value": 52.9, "unit": "µM"}, {"measurement": "GI50", "setting": "NCI/ADR-RES ovarian", "value": 14.5, "unit": "µM"}, {"measurement": "TGI", "setting": "NCI/ADR-RES ovarian", "value": 34.4, "unit": "µM"}, {"measurement": "GI50", "setting": "NCI-H460 lung", "value": 0.986, "unit": "µM"}, {"measurement": "TGI", "setting": "NCI-H460 lung", "value": 22.9, "unit": "µM"}, {"measurement": "GI50", "setting": "COLO 205 colon", "value": 16.4, "unit": "µM"}, {"measurement": "TGI", "setting": "COLO 205 colon", "value": 32.7, "unit": "µM"}, {"measurement": "GI50", "setting": "LOX IMVI melanoma", "value": 2.19, "unit": "µM"}, {"measurement": "TGI", "setting": "LOX IMVI melanoma", "value": "3.72 µM and 22.9 µM"}, {"measurement": "GI50", "setting": "SK-MEL-5 melanoma", "value": 0.0602, "unit": "µM"}, {"measurement": "TGI", "setting": "SK-MEL-5 melanoma", "value": 15.6, "unit": "µM"}, {"measurement": "TGI", "setting": "SF-539 CNS", "value": 29.5, "unit": "µM"}, {"measurement": "GI50", "setting": "786-0 renal", "value": 18.5, "unit": "µM"}, {"measurement": "TGI", "setting": "786-0 renal", "value": 34.5, "unit": "µM"}, {"measurement": "GI50", "setting": "KM12 colon", "value": 16.9, "unit": "µM"}, {"measurement": "TGI", "setting": "KM12 colon", "value": 35.9, "unit": "µM"}, {"measurement": "GI50", "setting": "SF-268 CNS", "value": 17, "unit": "µM"}, {"measurement": "TGI", "setting": "SF-268 CNS", "value": 40.3, "unit": "µM"}, {"measurement": "GI50", "setting": "HOP-62 NSCLC", "value": 17.5, "unit": "µM"}, {"measurement": "TGI", "setting": "HOP-62 NSCLC", "value": 31.8, "unit": "µM"}, {"measurement": "GI50", "setting": "SNB-19 CNS", "value": 13.3, "unit": "µM"}, {"measurement": "TGI", "setting": "SNB-19 CNS", "value": 27.7, "unit": "µM"}, {"measurement": "GI50", "setting": "MDA-MB-435", "value": 15.6, "unit": "µM"}, {"measurement": "TGI", "setting": "MDA-MB-435", "value": "8.48 µM and 38.8 µM"}, {"measurement": "GI50", "setting": "A549 NSCLC", "value": 12.4, "unit": "µM"}, {"measurement": "TGI", "setting": "A549 NSCLC", "value": 28.5, "unit": "µM"}, {"measurement": "GI50", "setting": "SNB-75 CNS", "value": 16.3, "unit": "µM"}, {"measurement": "TGI", "setting": "SNB-75 CNS", "value": 31.7, "unit": "µM"}, {"measurement": "GI50", "setting": "EKVX NSCLC", "value": 2.5, "unit": "µM"}, {"measurement": "TGI", "setting": "EKVX NSCLC", "value": 10.9, "unit": "µM"}, {"measurement": "GI50", "setting": "CAKI-1 renal", "value": 17.5, "unit": "µM"}, {"measurement": "TGI", "setting": "CAKI-1 renal", "value": 36.4, "unit": "µM"}, {"measurement": "GI50", "setting": "SN12C renal", "value": 17.8, "unit": "µM"}, {"measurement": "TGI", "setting": "SN12C renal", "value": 38.8, "unit": "µM"}, {"measurement": "TGI", "setting": "RXF 393 renal", "value": 33.2, "unit": "µM"}, {"measurement": "GI50", "setting": "MCF7 breast", "value": 10.9, "unit": "µM"}, {"measurement": "TGI", "setting": "MCF7 breast", "value": 25.4, "unit": "µM"}, {"measurement": "GI50", "setting": "PC-3 prostate", "value": 16.2, "unit": "µM"}, {"measurement": "TGI", "setting": "PC-3 prostate", "value": 29.8, "unit": "µM"}, {"measurement": "TGI", "setting": "U251 CNS", "value": "> 100", "unit": "µM"}, {"measurement": "GI50", "setting": "SW-620 colon", "value": 21.6, "unit": "µM"}, {"measurement": "TGI", "setting": "SW-620 colon", "value": 64, "unit": "µM"}, {"measurement": "GI50", "setting": "BT-549 breast", "value": 12.7, "unit": "µM"}, {"measurement": "TGI", "setting": "OVCAR-5 ovarian", "value": 31.7, "unit": "µM"}, {"measurement": "GI50", "setting": "NCI-H226 lung", "value": 17.4, "unit": "µM"}, {"measurement": "TGI", "setting": "NCI-H226 lung", "value": 43.3, "unit": "µM"}, {"measurement": "TGI", "setting": "NCI-H522 lung", "value": 19.7, "unit": "µM"}, {"measurement": "GI50", "setting": "MDA-MB-231 breast", "value": 16.2, "unit": "µM"}, {"measurement": "TGI", "setting": "MDA-MB-231 breast", "value": 40.9, "unit": "µM"}, {"measurement": "GI50", "setting": "ACHN renal", "value": 11.2, "unit": "µM"}, {"measurement": "TGI", "setting": "ACHN renal", "value": "5.5 µM and 23.8 µM"}, {"measurement": "GI50", "setting": "TK-10 renal", "value": 13.1, "unit": "µM"}, {"measurement": "TGI", "setting": "TK-10 renal", "value": 26.8, "unit": "µM"}, {"measurement": "GI50", "setting": "M14 melanoma", "value": 14.2, "unit": "µM"}, {"measurement": "TGI", "setting": "M14 melanoma", "value": 27.4, "unit": "µM"}, {"measurement": "TGI", "setting": "HL-60(TB) leukemia", "value": 8.05, "unit": "µM"}, {"measurement": "GI50", "setting": "T-47D breast", "value": 2.82, "unit": "µM"}, {"measurement": "TGI", "setting": "T-47D breast", "value": 21.6, "unit": "µM"}, {"measurement": "GI50", "setting": "K-562 leukemia", "value": 0.0621, "unit": "µM"}, {"measurement": "TGI", "setting": "K-562 leukemia", "value": 26.9, "unit": "µM"}, {"measurement": "GI50", "setting": "UO-31 renal", "value": 14.6, "unit": "µM"}, {"measurement": "TGI", "setting": "UO-31 renal", "value": "7.44 µM and 28.8 µM"}, {"measurement": "GI50", "setting": "SF-295 CNS", "value": 3, "unit": "µM"}, {"measurement": "TGI", "setting": "SF-295 CNS", "value": 20.1, "unit": "µM"}, {"measurement": "GI50", "setting": "MOLT-4 leukemia", "value": 3.67, "unit": "µM"}, {"measurement": "TGI", "setting": "MOLT-4 leukemia", "value": 24.9, "unit": "µM"}, {"measurement": "GI50", "setting": "HCT-116 colon", "value": 0.636, "unit": "µM"}, {"measurement": "TGI", "setting": "HCT-116 colon", "value": 22.7, "unit": "µM"}, {"measurement": "GI50", "setting": "UACC-257 melanoma", "value": 1.69, "unit": "µM"}, {"measurement": "TGI", "setting": "UACC-257 melanoma", "value": "5.81 µM and 19 µM"}, {"measurement": "GI50", "setting": "CCRF-CEM leukemia", "value": 5.62, "unit": "µM"}, {"measurement": "TGI", "setting": "CCRF-CEM leukemia", "value": 27.3, "unit": "µM"}, {"measurement": "TGI", "setting": "OVCAR-4 ovarian", "value": 36.1, "unit": "µM"}, {"measurement": "GI50", "setting": "NCI-H23 lung", "value": 0.46, "unit": "µM"}, {"measurement": "TGI", "setting": "NCI-H23 lung", "value": 22.2, "unit": "µM"}, {"measurement": "GI50", "setting": "SK-MEL-2 melanoma", "value": 19.9, "unit": "µM"}, {"measurement": "TGI", "setting": "SK-MEL-2 melanoma", "value": 36.2, "unit": "µM"}, {"measurement": "GI50", "setting": "HCT-15 colon", "value": 18.7, "unit": "µM"}, {"measurement": "TGI", "setting": "HCT-15 colon", "value": 57.8, "unit": "µM"}, {"measurement": "GI50", "setting": "SK-MEL-28 melanoma", "value": 20, "unit": "µM"}, {"measurement": "TGI", "setting": "SK-MEL-28 melanoma", "value": 41.2, "unit": "µM"}]}
